Laboratory results taken from patent publication US20100074870A1, “Probiotic infant products” (priority 2008, published 2010).

System: B. longum AH1206
Assay: Antibiotic sensitivity, minimum inhibitory concentration (MIC)
Settings: antibiotic against B. longum AH1206; unit not given

| Compound | minimum inhibitory concentration (MIC) |
| --- | --- |
| CCC[C@@H]1C[C@@H](C(=O)N[C@@H]([C@H]2O[C@H](SC)[C@H](O)[C@@H](O)[C@H]2O)[C@H](C)Cl)N(C)C1 [clindamycin] | 0.32 |
| CN[C@H](CC(C)C)C(=O)N[C@H]1C(=O)N[C@@H](CC(N)=O)C(=O)N[C@H]2C(=O)N[C@H]3C(=O)N[C@H](C(=O)N[C@H](C(=O)O)c4cc(O)cc(O)c4-c4cc3ccc4O)[C@H](O)c3ccc(c(Cl)c3)Oc3cc2cc(c3O[C@@H]2O[C@H](CO)[C@@H](O)[C@H](O)[C@H]2O[C@H]2C[C@](C)(N)[C@H](O)[C@H](C)O2)Oc2ccc(cc2Cl)[C@H]1O [vancomycin] | 0.75 |
| Cc1ncc([N+](=O)[O-])n1CCO [metronidazole] | 0.38 |
